What was measured:
[1] = tested on: pregnant mice; experiment: Teratogenic study in pregnant mice; type: in vivo; details: 20mg muristerone A in sesame oil, mother and pups observed for three months
[2] = tested on: adult mice; experiment: Toxicity study in adult mice; type: in vivo; details: 20mg muristerone A in sesame oil, intraperitoneal, observed approximately two months
Experimental: In order to use muristerone as a potential hormone in mice, its toxicity and bioavailability was examined. For toxicity studies, adult mice were injected intraperitonealy with 20mg of muristerone A suspended in sesame oil. The mice were then observed for approximately two months. […] In addition to the inert qualities of muristerone (an ecdysone), overexpression of VpEcR and RXR appears not to be toxic.

[3] = tested on: CV-1 cells transfected with CMX-GEcR, CMX-hRXRa, and EcREx5-DMTV-Luc; experiment: Muristerone bioavailability: serum of injected mice tested on transfected CV-1 cells; type: in vivo
Experimental: For muristerone bioavailability studies, adult mice were injected intraperitoneally with sesame oil with or without 10mg of muristerone, and were subsequently sacrificed for serum collection. After twelve hours, blood was drawn from the mice, and the serum was isolated by brief centrifugation of the whole blood. In order to conduct transfection assays to test for muristerone activity, serum from sesame oil injected mice was divided, and half was supplemented with muristerone to a final concentration of 10µM. The three batches of mouse serum were diluted 1:10 in DMEM and placed onto CV-1 cells transfected with CMX-GEcR, CMX-hRXRa, and EcREx5-DMTV-Luc.

[4] = tested on: modified ecdysone receptor GEcR (SEQ ID NO:9) with retinoid X receptor (RXR); experiment: Transient transfection reporter assay in CV-1 cells, muristerone responsiveness; type: cell-based; details: 1µM muristerone A vs ethanol
Experimental: (§1) CV-1 cells were maintained in DMEM supplemented with 10% Fetal Bovine Serum. Transient transfections were performed using DOTAP transfection reagent (Boehringer-Mannheim). Transfections using ß-galactosidase as the reporter were assayed either by Galactolight luminescent assay (Tropix, Bedford, MA) or by standard liquid ONPG assay (Sigma, St. Louis, MO). The values were normalized by co-transfection of CMX-luciferase. Transfections using luciferase as the reporter were assayed by standard techniques using luciferin and ATP. These values were normalized by co-transfection of CMX-ß-galactosidase. Hormone treated cells were treated with ethanol, 50 µM Juvenile Hormone III (Sigma), 1µM muristerone A (Zambon, Bresso, IT), or 1µM dexamethasone (Sigma) unless otherwise noted.
(§2) To maximize the sensitivity of the invention ecdysone inducible system, modifications of the ecdysone receptor were made. The N-terminal transactivation domain of the ecdysone receptor was replaced by the corresponding domain of the glucocorticoid receptor (GR), resulting in the modified ecdysone receptor GEcR (See Figure 1D). CV-1 cells were transfected with the plasmid CMX-GEcR encoding the modified ecdysone receptor as discussed above. After transfection, cells were either treated with ethanol or 1µM muristerone A. This hybrid modified ecdysone receptor boosted muristerone responsiveness from 3- to 11-fold in a transient transfection assay (Fig. 1A).

[5] = tested on: ecdysone receptor (EcR) with its natural heterodimeric partner USP; experiment: as above; type: cell-based; details: 1µM muristerone A vs ethanol
Experimental: as §1, §2

[6] = tested on: modified ecdysone receptor GEcR (SEQ ID NO:9; N-terminal transactivation domain of GR, DNA- and ligand-binding domains of EcR) with USP; experiment: as above; type: cell-based; details: 1µM muristerone A vs ethanol
Experimental: as §1, §2

[7] = tested on: modified ecdysone receptor VpEcR (SEQ ID NO:7; N-terminal truncation of EcR fused to VP16 activation domain) with RXR; experiment: as above; type: cell-based; details: 1µM muristerone A vs no hormone
Experimental: as §1

[8] = tested on: VpEcR (SEQ ID NO:7) with RXR (CMX-hRXRa) in N13 cells; experiment: Ecdysone responsiveness in stable cell line N13 (293 cells), ß-galactosidase and luciferase reporters; type: cell-based; details: 36 hours
Experimental: Stable cell lines were generated containing the modified ecdysone receptor VpEcR, a heterodimeric partner (RXR), and an ecdysone inducible reporter (Figure 2). 293 cells were transfected with the following linearized plasmids, pRC-ESHß, EcREx5-ΔMTV-Luc, CMX-VpEcR, and CMX-hRXRa. The following day, the cells were split 1:10 and were allowed to recover one day prior to selection with 1mg/ml G418 (GIBCO). After 14 days of selection, 14 individual clones were isolated and grown separately in the presence of 0.5mg/ml G418.
One of these cell lines, N13, was grown in the presence or absence of 1µM muristerone for 20 hours. Cell lysates were then assayed for ß-galactosidase and luciferase activities as described in Example 1. X-gal staining was performed on the stable cell lines. Cells were fixed briefly with 10% formaldehyde in PBS and then stained with X-Gal (Molecular Probes, Eugene, OR) for 2 to 6 hours. After 24 hours of treatment with 1µM muristerone, 100% of the cells turned dark blue after 3 hours of staining. Thus, mammalian cells containing the modified ecdysone receptor VpEcR, a heterodimeric partner (RXR), and a reporter gene construct regulated by a modified ecdysone response element, function to efficiently express an exogenous gene in response to a ligand, e.g., ecdysone. […]
Finally, the kinetics of muristerone mediated induction was measured. […]

[9] = tested on: VpEcR and RXR (CD3-VpEcR; CD3-RXR) with ecdysone inducible reporter ESHß; experiment: Muristerone dependent gene expression in receptor/reporter transgenic mice, Northern blot; type: in vivo; details: 10mg muristerone intraperitoneal, RNA isolated 48 hours after treatment
Experimental: To produce transgenic mice, the following DNA constructs were prepared and subsequently injected into fertilized eggs: CD3-VpEcR, CD3-RXR, ESHß (Lee et al., J. Exp. Med. 175:1013-1025 (1992)). Two separate lines of transgenic mice were generated harboring either an ecdysone inducible reporter, ESHß, or a T-cell specific expression construct of VpEcR and RXR, respectively. The former are referred to as reporter mice, the latter are referred to as receptor mice, and double transgenic mice are referred to as receptor/reporter mice. Constructs CD3-VpEcR and CD3-RXR were mixed and coinjected, while ESHß was injected alone. Primary genotyping was performed by Southern blot analysis and the transmission of transgenic mice was monitored by dot blot analysis. Receptor mice were analyzed for VpEcR and RXR expression by Northern blot analysis of RNA collected from these mice. For Northern blot analysis, 15µg of total RNA obtained from the thymus, and various tissues as a control, was run on a denaturing gel and blotted onto a nitrocellulose membrane. The blot was probed with a radiolabeled ß-gal-specific probe and exposed on film for 2 days. These receptor mice were healthy, fertile, and appeared normal by visual inspection. In addition, the transgene was transferred to the offspring as expected by Mendelian genetics. […]

CC(C)CC[C@@H](O)[C@](C)(O)[C@H]1CC[C@@]2(O)C3=CC(=O)[C@]4(O)C[C@@H](O)[C@@H](O)C[C@]4(C)[C@H]3[C@H](O)C[C@]12C [muristerone A]
teratogenicity [1]: neither toxic, teratogenic | toxicity [2]: neither toxic | luciferase activity of serum from muristerone treated mice ([3]; 10mg muristerone intraperitoneal, serum after twelve hours, diluted 1:10 in DMEM): comparable to that seen from untreated mouse serum supplemented with 1µM muristerone | activity when injected into mice ([3]; injected into mice): maintains its activity | inactivation by serum binding proteins ([3]; injected into mice): nor inactivated by serum binding proteins | blunting of activity due to association with serum proteins ([3]; mouse serum): little or no blunting of activity | induction [4]: 34 fold | muristerone responsiveness (induction) [5]: 3 fold | muristerone responsiveness (induction) [6]: 11 fold | induction [7]: 212 fold | inducibility ([8]; final concentration 10µM muristerone, ß-galactosidase and luciferase reporters): ~3 orders of magnitude | induction ([8]; muristerone concentrations as low as 100nM): One-hundred | induction from an ecdysone inducible promoter in the thymus [9]: significant induction

Reference: EP0910652B1, “HORMONE-MEDIATED METHODS FOR […] EXOGENOUS GENES IN MAMMALIAN SYSTEMS, AND PRODUCTS RELATED THERETO” (THE SALK INSTITUTE FOR BIOLOGICAL STUDIES, priority 1996, dated 1997)
